Values of other authors as cited in publication PMC4801399, “Impact of a CXCL12/CXCR4 Antagonist in Bleomycin (BLM) Induced Pulmonary Fibrosis and Carbon Tetrachloride (CCl4) Induced Hepatic Fibrosis in Mice” (PLoS ONE, 2016).

How the values were obtained:
BLM induced PF = details: cited from earlier work
liver fibrosis = details: cited from earlier work

In the case of c1cc(CN2CCCNCCNCCCNCC2)ccc1CN1CCCNCCNCCCNCC1 [AMD3100], the “number of fibrocytes in the lung” value (BLM induced PF; 3 and 7 days post BLM treatment) is given as “decreased”, the “mortality associated with BLM induced PF” value (BLM induced PF) is given as “alleviate” and the “lung fibrosis and fibrocyte infiltration into the lung” value (BLM induced PF; murine model of BLM induced PF) is given as “reduce”. The liver fibrosis (liver fibrosis) was “increased” and the “transcript levels of Acta2 and Col1a1” value (liver fibrosis) was “increased”.
